The structures appear in SMILES notation.

The assay addresses T1, CHK1 kinase (Homo sapiens, UniProt O14757).
T1 construct: The kinase domain is expressed in baculovirus and purified by the GST tag; GST; made in house
T1 sequence (O14757 9-265 limits assumed): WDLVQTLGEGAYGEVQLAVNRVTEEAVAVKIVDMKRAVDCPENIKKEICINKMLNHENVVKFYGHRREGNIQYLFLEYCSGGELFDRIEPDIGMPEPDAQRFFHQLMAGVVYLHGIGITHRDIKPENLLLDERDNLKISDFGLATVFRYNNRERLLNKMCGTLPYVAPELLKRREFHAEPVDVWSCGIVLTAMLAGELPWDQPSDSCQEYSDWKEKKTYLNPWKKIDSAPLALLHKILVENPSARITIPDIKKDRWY
Put plainly: Checkpoint Kinase 1 Assay (Scintillation Proximity Assay). The format is biochemical. On the procedure:
Checkpoint Kinase 1 Assay: This in vitro assay measures the inhibition of CHK1 kinase by compounds. The kinase domain is expressed in baculovirus and purified by the GST tag. Purified protein and biotinylated peptide substrate (Cdc25C) is then used in a 384 well automated Scintillation Proximity Assay (SPA). Specifically, peptide, enzyme and reaction buffer are mixed and aliquoted into a 384 well plate containing dilution series of compounds and controls. Cold and hot ATP are then added to initiate the reaction. After 2 hours, a SPA bead slurry, […] and EDTA are added to stop the reaction and capture the biotinylated peptide. Plates are then counted on a Topcount. Data is analyzed and IC50s determined for individual compounds.
On the technique in general: Scintillation proximity formats need no separation of bound from free tracer.

A word on the IC50: it is the concentration that inhibits the measured activity by half. Higher therefore signals weaker potency. `COc1ccc(F)cc1-c1cc(C(=O)N[C@H]2CCCCNC2)c(NC(N)=O)s1` [Example 97] gave an IC50 of 0.14 nM. `O=C(Nc1cnccn1)Nc1cc(-c2ccc(Cl)cc2)sc1C(=O)N[C@H]1CCCNC1` [Example 263, 5-(4-Chloro-phenyl)-3-(3-pyrazin-2-yl-ureido)-thiophene-2-carboxylic acid (S)-piperidin-3-ylamide] returned a concentration for half-maximal inhibition (IC50) of 0.12 nM. The IC50 values of the last two molecules are within 1.5-fold of each other.
